Results: patent publication US10676431B2, “Phenylpyrrolidinone formyl peptide 2 receptor agonists” (BRISTOL-MYERS SQUIBB COMPANY, priority 2018, dated 2020)

Key:
[1] = biological target: human FPR1 (Homo sapiens (Human), UniProt P21462); assay: FPR1 cyclic adenosine monophosphate (cAMP) assay; type: cell-based; settings: CHO cells overexpressing human FPR1; forskolin 10 μM, IBMX 200 μM; inhibition of cAMP production, HTRF; read-out: hFPR1 cAMP EC50
Method: FPR2 and FPR1 Cyclic Adenosine Monophosphate (cAMP) Assays. A mixture of forskolin (5 μM final for FPR2 or 10 μM final for FPR1) and IBMX (200 μM final) were added to 384-well Proxiplates (Perkin-Elmer) pre-dotted with test compounds in DMSO (1% final) at final concentrations in the range of 0.020 nM to 100 μM. Chinese Hamster Ovary cells (CHO) overexpressing human FPR1 or human FPR2 receptors were cultured in F-12 (Ham's) medium supplemented with 10% qualified FBS, 250 μg/ml zeocin and 300 μg/ml hygromycin (Life Technologies). Reactions were initiated by adding 2,000 human FPR2 cells per well or 4,000 human FPR1 cells per well in Dulbecco's PBS (with calcium and magnesium) (Life Technologies) supplemented with 0.1% BSA (Perkin-Elmer). The reaction mixtures were incubated for 30 min at room temperature. The level of intracellular cAMP was determined using the HTRF HiRange cAMP assay reagent kit (Cisbio) according to manufacturer's instruction. Solutions of cryptate conjugated anti-cAMP and d2 fluorophore-labelled cAMP were made in a supplied lysis buffer separately. Upon completion of the reaction, the cells were lysed with equal volume of the d2-cAMP solution and anti-cAMP solution. […] The potency and activity of a compound to inhibit cAMP production was then determined by fitting to a 4-parametric logistic equation from a plot of cAMP level versus compound concentrations.

[2] = biological target: human FPR2 (Homo sapiens (Human), UniProt P25090); assay: FPR2 cyclic adenosine monophosphate (cAMP) assay; type: cell-based; settings: CHO cells overexpressing human FPR2; forskolin 5 μM, IBMX 200 μM; inhibition of cAMP production, HTRF; read-out: hFPR2 cAMP2 EC50
Method: FPR2 and FPR1 Cyclic Adenosine Monophosphate (cAMP) Assays. A mixture of forskolin (5 μM final for FPR2 or 10 μM final for FPR1) and IBMX (200 μM final) were added to 384-well Proxiplates (Perkin-Elmer) pre-dotted with test compounds in DMSO (1% final) at final concentrations in the range of 0.020 nM to 100 μM. Chinese Hamster Ovary cells (CHO) overexpressing human FPR1 or human FPR2 receptors were cultured in F-12 (Ham's) medium supplemented with 10% qualified FBS, 250 μg/ml zeocin and 300 μg/ml hygromycin (Life Technologies). Reactions were initiated by adding 2,000 human FPR2 cells per well or 4,000 human FPR1 cells per well in Dulbecco's PBS (with calcium and magnesium) (Life Technologies) supplemented with 0.1% BSA (Perkin-Elmer). The reaction mixtures were incubated for 30 min at room temperature. The level of intracellular cAMP was determined using the HTRF HiRange cAMP assay reagent kit (Cisbio) according to manufacturer's instruction. Solutions of cryptate conjugated anti-cAMP and d2 fluorophore-labelled cAMP were made in a supplied lysis buffer separately. Upon completion of the reaction, the cells were lysed with equal volume of the d2-cAMP solution and anti-cAMP solution. After a 1-h room temperature incubation, time-resolved fluorescence intensity was measured using the Envision (Perkin-Elmer) at 400 nm excitation and dual emission at 590 nm and 665 nm. A calibration curve was constructed with an external cAMP standard at concentrations ranging from 1 μM to 0.1 pM by plotting the fluorescent intensity ratio from 665 nm emission to the intensity from the 590 nm emission against cAMP concentrations. The potency and activity of a compound to inhibit cAMP production was then determined by fitting to a 4-parametric logistic equation from a plot of cAMP level versus compound concentrations.

Chain of human FPR2 (P25090 whole entry): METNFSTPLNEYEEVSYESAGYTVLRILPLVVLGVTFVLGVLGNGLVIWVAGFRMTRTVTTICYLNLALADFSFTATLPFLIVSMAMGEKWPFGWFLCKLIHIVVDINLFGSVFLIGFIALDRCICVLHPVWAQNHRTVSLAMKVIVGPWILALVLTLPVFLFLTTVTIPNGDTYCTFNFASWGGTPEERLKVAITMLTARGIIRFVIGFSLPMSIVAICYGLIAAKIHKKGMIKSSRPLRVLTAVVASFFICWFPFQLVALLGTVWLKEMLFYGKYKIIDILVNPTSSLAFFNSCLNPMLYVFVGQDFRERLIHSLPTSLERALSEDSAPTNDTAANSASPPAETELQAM
Chain of human FPR1 (P21462 whole entry): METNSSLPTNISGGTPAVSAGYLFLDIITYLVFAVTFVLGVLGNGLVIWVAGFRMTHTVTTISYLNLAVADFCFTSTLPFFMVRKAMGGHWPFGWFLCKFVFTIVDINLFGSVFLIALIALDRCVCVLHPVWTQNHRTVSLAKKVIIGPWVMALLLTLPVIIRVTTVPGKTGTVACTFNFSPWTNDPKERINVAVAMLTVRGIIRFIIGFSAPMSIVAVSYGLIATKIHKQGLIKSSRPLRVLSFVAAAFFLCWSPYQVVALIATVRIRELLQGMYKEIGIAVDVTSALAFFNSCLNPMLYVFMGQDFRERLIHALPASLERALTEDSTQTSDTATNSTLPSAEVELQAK

| SMILES | EC50 [1] [nM] | EC50 [2] [nM] |
| --- | --- | --- |
| CP(C)(=O)c1ncncc1-c1ccc(N2CC[C@@H](NC(=O)Nc3ccc(Cl)cc3F)C2=O)c(F)c1F [Example 84] | 280 | 6 |
| CP(C)(=O)c1ccccc1-c1ccc(N2CC[C@@H](NC(=O)Nc3ccc(Cl)cc3F)C2=O)c(F)c1C(F)(F)F [Example 83] | 0.99 | 0.41 |
| CC1(C)CN(c2ccc(-c3cccnc3P(C)(C)=O)c(F)c2F)C(=O)[C@@H]1NC(=O)Nc1ccc(C(F)(F)F)cc1F [Example 110] | 640 | 1.1 |
| CS(=O)(=O)Nc1ccccc1-c1ccc(N2CC[C@@H](NC(=O)Nc3ccc(Cl)cn3)C2=O)c(F)c1F [Example 17] | 4100 | 16 |
| CC(C)c1cc(-c2ccccc2NS(C)(=O)=O)ccc1N1CC[C@@H](NC(=O)Nc2ccc(Cl)cc2F)C1=O [Example 27] | 110 | 0.5 |
| CS(=O)(=O)c1ccccc1-c1ccc(N2C(=O)[C@H](NC(=O)Nc3ccc(C(F)(F)F)cc3F)C[C@H]2CO)c(F)c1F [Example 39] | 57 | 0.58 |
| CS(=N)(=O)c1ccccc1-c1ccc(N2CC[C@@H](NC(=O)Nc3ccc(Cl)cc3F)C2=O)c(F)c1F (some centres unmarked) [Example 59] | 140 | 1.7 |
| CC(C)c1cc(-c2ccccc2P(C)(C)=O)ccc1N1CC[C@@H](NC(=O)Nc2ccc(C(F)(F)F)cc2F)C1=O [Example 60] | 120 | 3.7 |
| CC(N)c1cccc(-c2ccc(N3CC[C@@H](NC(=O)Nc4ccc(Cl)cc4F)C3=O)c(F)c2F)c1 (some centres unmarked) [Example 50] | 640 | 14 |
| CS(=O)(=O)c1ccccc1-c1ccc(N2CC[C@@H](NC(=O)Nc3ccc(Cl)cc3)C2=O)c(F)c1F [Example 10] | 130 | 2.2 |
| O=C(Nc1ccc(Cl)cc1F)N[C@@H]1CCN(c2ccc(-c3ccccc3N3CCOC3=O)c(F)c2F)C1=O [Example 119] | 190 | 14 |
| CP(C)(=O)c1ccccc1-c1ccc(N2CC[C@@H](NC(=O)Nc3ccc(OC(F)(F)F)cc3)C2=O)c(F)c1F [Example 51] | 1300 | 8.2 |
| COc1c(N2CC[C@@H](NC(=O)Nc3ccc(Cl)cc3F)C2=O)ccc(-c2ccccc2NS(C)(=O)=O)c1F [Example 36] | 69 | 4.7 |
| O=C(Nc1ccc(Cl)cc1)N[C@@H]1CCN(c2ccc(-c3ccccc3F)c(F)c2F)C1=O [Example 16] | 120 | 12 |
| CC(C)c1cc(-c2ccccc2CO)ccc1N1CC[C@@H](NC(=O)Nc2ccc(Cl)cc2F)C1=O [Example 38] | 42 | 3.5 |
| CC(C)c1cc(-c2cccnc2NS(C)(=O)=O)ccc1N1CC[C@@H](NC(=O)Nc2ccc(Cl)cc2F)C1=O [Example 47] | 64 | 2.8 |
| CC(=O)NC(C)c1cccc(-c2ccc(N3CC[C@@H](NC(=O)Nc4ccc(Cl)cc4F)C3=O)c(F)c2F)c1 (some centres unmarked) [Example 44] | 450 | 43 |
| COc1c(-c2ccccc2NS(C)(=O)=O)ccc(N2CC[C@@H](NC(=O)Nc3ccc(Cl)cc3F)C2=O)c1F [Example 34] | 26 | 4.1 |
| CS(=O)(=O)c1ccccc1-c1cc(F)c(N2CC[C@@H](NC(=O)Nc3ccc(Cl)cc3F)C2=O)c(F)c1 [Example 52] | 1100 | 10 |
| CS(=O)(=O)c1ccccc1-c1ccc(N2C(=O)[C@H](NC(=O)Nc3ccc(Cl)cc3F)C[C@H]2CO)c(F)c1F [Example 42] | 220 | 1 |

| SMILES | EC50 [1] [nM] | EC50 [2] [nM] |
| --- | --- | --- |
| CS(=O)(=O)Nc1ncccc1-c1ccc(N2CC[C@@H](NC(=O)Nc3ccc(Cl)cc3F)C2=O)c(C2CC2)c1 [Example 48] | 110 | 3.7 |
| CS(=O)(=O)Nc1ccccc1-c1ccc(N2CC[C@@H](NC(=O)Nc3ccc(C(F)(F)F)cc3F)C2=O)c(C2CC2)c1 [Example 43] | 120 | 3.3 |
| O=C(Nc1ccc(Cl)cc1F)N[C@@H]1CCN(c2ccc(-c3ccccc3F)c(F)c2F)C1=O [Example 21] | 390 | 31 |
| COC[C@@H]1C[C@@H](NC(=O)Nc2ccc(C(F)(F)F)cc2F)C(=O)N1c1ccc(-c2ccccc2P(C)(C)=O)c(F)c1F [Example 90] | 1400 | 5.1 |
| CP(C)(=O)c1ccccc1-c1ccc(N2C(=O)[C@H](NC(=O)Nc3ccc(C(F)(F)F)cc3F)C[C@H]2CO)c(F)c1F [Example 114] | 270 | 0.86 |
| CS(=O)(=O)Nc1ccccc1-c1ccc(N2CC[C@@H](NC(=O)Nc3ccc(Cl)cc3F)C2=O)c(C2CC2)c1 [Example 26] | 47 | 0.55 |
| CS(=O)(=O)c1ccccc1-c1ccc(N2CC[C@@H](NC(=O)Nc3ccc(Cl)cn3)C2=O)c(F)c1F [Example 24] | 1400 | 22 |
| CS(=O)(=O)Nc1ccccc1-c1ccc(N2CC[C@@H](NC(=O)Nc3ccc(C(F)(F)F)cc3F)C2=O)c(F)c1F [Example 33] | 470 | 1.1 |
| CP(C)(=O)c1ncccc1-c1ccc(N2CC[C@@H](NC(=O)Nc3ccc(C(F)(F)F)cc3F)C2=O)c(F)c1F [Example 73, (R)-1-(1-(4-(2-(dimethylphosphoryl)pyridin-3-yl)-2,3-difluorophenyl)-2-oxopyrrolidin-3-yl)-3-(2-fluoro-4-(trifluoromethyl)phenyl)urea] | 170 | 0.89 |
| CP(C)(=O)c1ccccc1-c1ccc(N2CC[C@@H](NC(=O)Nc3cnc(Cl)cn3)C2=O)c(F)c1F [Example 63] | 4400 | 5.67 |
| CS(=O)(=O)Nc1ccccc1-c1ccc(N2CC[C@@H](NC(=O)Nc3ccc(C(F)(F)F)cc3)C2=O)cc1 [Example 14] | 600 | 7.2 |
| CS(=O)(=O)c1ccccc1-c1ccc(N2CC[C@@H](NC(=O)Nc3ccc(C(F)(F)F)cc3F)C2=O)c(F)c1F [Example 29] | 190 | 7 |
| CP(C)(=O)c1c(F)cccc1-c1ccc(N2CC[C@@H](NC(=O)Nc3ccc(Cl)cc3F)C2=O)c(F)c1F [Example 70] | 20 | 0.077 |
| CP(C)(=O)c1ccccc1-c1ccc(N2CC(CO)[C@@H](NC(=O)Nc3ccc(Cl)cc3F)C2=O)c(F)c1F (some centres unmarked) [Example 125] | 180 | 0.99 |
| CP(C)(=O)c1ccccc1-c1ccc(N2CC(CO)[C@@H](NC(=O)Nc3ccc(C(F)(F)F)cc3F)C2=O)c(F)c1F (some centres unmarked) [Example 124] | 760 | 0.79 |
| O=C(Nc1ccc(C(F)(F)F)cc1F)N[C@@H]1CCN(c2ccc(-c3cccc4c3S(=O)(=O)NC4)c(F)c2F)C1=O [Example 97] | 110 | 7.2 |
| CS(=O)(=O)Nc1ccccc1-c1ccc(N2CC[C@@H](NC(=O)Nc3ncc(Cl)cc3F)C2=O)c(F)c1F [Example 13] | 2500 | 6.5 |
| CP(C)(=O)c1ncccc1-c1ccc(N2C(=O)[C@H](NC(=O)Nc3ccc(C(F)(F)F)cc3F)C[C@H]2CO)c(F)c1F [Example 123] | 240 | 1.5 |
| CP(C)(=O)c1ccccc1-c1ccc(N2CC[C@@H](NC(=O)Nc3ccc(C(F)(F)F)cc3F)C2=O)c(Cl)c1F [Example 98] | 270 | 2.9 |
| CC(C)c1cc(-c2ccccc2NS(C)(=O)=O)ccc1N1CC[C@@H](NC(=O)Nc2ccc(C(F)(F)F)cc2F)C1=O [Example 37] | 170 | 1.4 |
